# From patent US20240109903A1, “SUBSTITUTED HETEROCYCLES FOR TREATING CANCER” (Northwestern University, priority 2022, published 2024)
# Columns and labels:
# [1] = system: SN12C; experiment: NCI 60 five-dose screen SN12C; type: cell-based; conditions: Homo sapiens
# [2] = system: NCI-H23; experiment: NCI 60 five-dose screen NCI-H23; type: cell-based; conditions: Homo sapiens
# [3] = system: UACC-62; experiment: NCI 60 five-dose screen UACC-62; type: cell-based; conditions: Homo sapiens
# [4] = system: SNB-75; experiment: NCI 60 five-dose screen SNB-75; type: cell-based; conditions: Homo sapiens
# [5] = system: SW-620; experiment: NCI 60 five-dose screen SW-620; type: cell-based; conditions: Homo sapiens
# [6] = system: SF-539; experiment: NCI 60 five-dose screen SF-539; type: cell-based; conditions: Homo sapiens
# [7] = system: MDA-MB-468; experiment: NCI 60 five-dose screen MDA-MB-468; type: cell-based; conditions: Homo sapiens
# [8] = system: ACHN; experiment: NCI 60 five-dose screen ACHN; type: cell-based; conditions: Homo sapiens
# [9] = system: SK-MEL-28; experiment: NCI 60 five-dose screen SK-MEL-28; type: cell-based; conditions: Homo sapiens
# [10] = system: SR; experiment: NCI 60 five-dose screen SR; type: cell-based, human
# [11] = system: A549/ATCC; experiment: NCI 60 five-dose screen A549/ATCC; type: cell-based; conditions: Homo sapiens
# [12] = system: HCC-2998; experiment: NCI 60 five-dose screen HCC-2998; type: cell-based; conditions: Homo sapiens
# [13] = system: SK-MEL-5; experiment: NCI 60 five-dose screen SK-MEL-5; type: cell-based; conditions: Homo sapiens
# [14] = system: M14; experiment: NCI 60 five-dose screen M14; type: cell-based; conditions: Homo sapiens
# [15] = system: HT29; experiment: NCI 60 five-dose screen HT29; type: cell-based; conditions: Homo sapiens
# [16] = system: HOP-62; experiment: NCI 60 five-dose screen HOP-62; type: cell-based; conditions: Homo sapiens
# [17] = system: UACC-257; experiment: NCI 60 five-dose screen UACC-257; type: cell-based; conditions: Homo sapiens
# [18] = system: A498; experiment: NCI 60 five-dose screen A498; type: cell-based; conditions: Homo sapiens
# [19] = system: SK-OV-3; experiment: NCI 60 five-dose screen SK-OV-3; type: cell-based; conditions: Homo sapiens
# [20] = system: OVCAR-4; experiment: NCI 60 five-dose screen OVCAR-4; type: cell-based; conditions: Homo sapiens
# [21] = system: U251; experiment: NCI 60 five-dose screen U251; type: cell-based; conditions: Homo sapiens
# [22] = system: T-47D; experiment: NCI 60 five-dose screen T-47D; type: cell-based; conditions: Homo sapiens, T47D
# [23] = system: HS 578T; experiment: NCI 60 five-dose screen HS 578T; type: cell-based; conditions: Homo sapiens
# [24] = system: COLO 205; experiment: NCI 60 five-dose screen COLO 205; type: cell-based; conditions: Homo sapiens
# [25] = system: SK-MEL-2; experiment: NCI 60 five-dose screen SK-MEL-2; type: cell-based; conditions: Homo sapiens
# [26] = system: SNB-19; experiment: NCI 60 five-dose screen SNB-19; type: cell-based; conditions: Homo sapiens
# [27] = system: MDA-MB-231/ATCC; experiment: NCI 60 five-dose screen MDA-MB-231/ATCC; type: cell-based; conditions: Homo sapiens
# [28] = system: OVCAR-3; experiment: NCI 60 five-dose screen OVCAR-3; type: cell-based; conditions: Homo sapiens
# [29] = read-out: LC50 (the source's name) (converted)
# [30] = read-out: LC50 (the source's name)
smiles,measurement,setting,value
Fc1ccc(N2CC(Cn3c(C(F)(F)F)cc4c(Cl)ncnc43)C2)c(F)c1 [NUCC-0226695],GI50,[1],1.95 µM
same,IC50,[1],3.31 µM
same,IC (TGI),[1],5.01 µM
same,CC50,[1]; [29],16.2 µM
same,GI50,[2],2.63 µM
same,IC50,[2],4.9 µM
same,IC (TGI),[2],8.32 µM
same,CC50,[2]; [29],30.9 µM
same,GI50,[3],3.16 µM
same,IC50,[3],5.62 µM
same,IC (TGI),[3],12.9 µM
same,CC50,[3]; [29],36.3 µM
same,GI50,[4],12 µM
same,IC50,[4],25.1 µM
same,IC (TGI),[4],24.5 µM
same,CC50,[4]; [29],51.3 µM
same,GI50,[5],1.91 µM
same,IC50,[5],3.16 µM
same,IC (TGI),[5],3.8 µM
same,CC50,[5]; [29],7.76 µM
same,GI50,[6],13.8 µM
same,IC50,[6],24.5 µM
same,IC (TGI),[6],28.2 µM
same,CC50,[6]; [29],58.9 µM
same,GI50,[7],1.62 µM
same,IC50,[7],3.39 µM
same,IC (TGI),[7],3.24 µM
same,CC50,[7]; [29],6.31 µM
same,GI50,[8],12.9 µM
same,IC50,[8],21.9 µM
same,IC (TGI),[8],27.5 µM
same,CC50,[8]; [29],58.9 µM
same,GI50,[9],2.09 µM
same,IC50,[9],3.63 µM
same,IC (TGI),[9],4.9 µM
same,CC50,[9]; [29],16.6 µM
same,TGI,[10],5.16 −log[M]
same,GI50,[10]; Homo sapiens,2.14 µM
same,IC50,[10]; Homo sapiens,3.39 µM
same,CC50,"[10]; Homo sapiens, read-out: LC50 (the source's name)",≥ 100 µM
same,GI50,[11],17.4 µM
same,IC50,[11],29.5 µM
same,IC (TGI),[11],35.5 µM
same,CC50,[11]; [29],74.1 µM
same,GI50,[12],1.95 µM
same,IC50,[12],3.47 µM
same,IC (TGI),[12],3.47 µM
same,CC50,[12]; [29],6.17 µM
same,GI50,[13],11 µM
same,IC50,[13],18.2 µM
same,IC (TGI),[13],22.9 µM
same,CC50,[13]; [29],47.9 µM
same,GI50,[14],2.95 µM
same,IC50,[14],4.37 µM
same,IC (TGI),[14],10.7 µM
same,CC50,[14]; [29],45.7 µM
same,GI50,[15]; HT-29,3.47 µM
same,IC50,[15]; HT-29,4.27 µM
same,IC (TGI),[15]; HT-29,16.2 µM
same,CC50,"[15]; HT-29, read-out: LC50 (the source's name) (converted)",97.7 µM
same,GI50,[16],17 µM
same,IC50,[16],32.4 µM
same,IC (TGI),[16],33.9 µM
same,CC50,[16]; [29],66.1 µM
same,GI50,[17],3.09 µM
same,IC50,[17],6.46 µM
same,IC (TGI),[17],12 µM
same,CC50,[17]; [29],42.7 µM
same,GI50,[18],23.4 µM
same,IC50,[18],100 µM
same,IC (TGI),[18],74.1 µM
same,CC50,[18]; [29],≥ 100 µM
same,GI50,[19],14.5 µM
same,IC50,[19],28.8 µM
same,IC (TGI),[19],29.5 µM
same,CC50,[19]; [29],60.3 µM
same,GI50,[20],12.9 µM
same,IC50,[20],24.5 µM
same,IC (TGI),[20],26.9 µM
same,CC50,[20]; [29],56.2 µM
same,GI50,[21]; U-251,1.91 µM
same,IC50,[21]; U-251,3.24 µM
same,IC (TGI),[21]; U-251,3.8 µM
same,CC50,"[21]; U-251, read-out: LC50 (the source's name) (converted)",7.76 µM
same,GI50,[22],13.8 µM
same,IC50,[22],43.7 µM
same,IC (TGI),[22],67.6 µM
same,CC50,[22]; [30],≥ 100 µM
same,GI50,[23],7.08 µM
same,IC50,[23],77.6 µM
same,IC (TGI),[23],41.7 µM
same,CC50,[23]; [30],≥ 100 µM
same,GI50,[24],15.1 µM
same,IC50,[24],26.9 µM
same,IC (TGI),[24],32.4 µM
same,CC50,[24]; [29],70.8 µM
same,GI50,[25],15.8 µM
same,IC50,[25],31.6 µM
same,IC (TGI),[25],30.9 µM
same,CC50,[25]; [29],61.7 µM
same,GI50,[26],15.1 µM
same,IC50,[26],27.5 µM
same,IC (TGI),[26],28.8 µM
same,CC50,[26]; [29],55 µM
same,GI50,[27],1.62 µM
same,IC50,[27],2.95 µM
same,IC (TGI),[27],3.09 µM
same,CC50,[27]; [29],5.89 µM
same,GI50,[28],2.57 µM
same,IC50,[28],4.9 µM
same,IC (TGI),[28],6.46 µM
same,CC50,[28]; [29],22.9 µM
